{
  "source": "paper PMC6841712",
  "about": "(Scientific Reports, 2019)",
  "target": "T1, 145138 (Aurantiochytrium limacinum, UniProt A0A3S5XF47)",
  "T1 construct": "6x His-tagged full-length ORF overexpressed in A. limacinum; secreted form purified from medium on Ni-Sepharose; cleaved between L159 and A160; N-terminus ALSSS; 30 kDa on SDS-PAGE",
  "T1 sequence (A0A3S5XF47 160-420)": "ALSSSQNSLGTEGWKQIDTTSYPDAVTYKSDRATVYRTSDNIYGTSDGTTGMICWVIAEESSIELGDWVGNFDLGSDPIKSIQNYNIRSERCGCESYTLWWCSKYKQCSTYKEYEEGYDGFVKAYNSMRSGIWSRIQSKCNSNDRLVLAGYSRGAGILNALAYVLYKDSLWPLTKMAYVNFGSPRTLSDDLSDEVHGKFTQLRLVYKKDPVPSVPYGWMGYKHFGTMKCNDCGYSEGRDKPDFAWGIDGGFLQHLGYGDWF",
  "assay": "inhibition of TF-TG hydrolysis ([…],3-TF-DG release), TLC fluorescence scan",
  "assay_type": "biochemical",
  "details": "competitive; substrate TF-TG",
  "data": [
    {"smiles": "CCCCCCCCCCCCCCCCCC(=O)O[C@H](CO)COP(=O)([O-])OCC[N+](C)(C)C", "note": "[2-acyl LPC]", "values": [
      {"measurement": "inhibition of TF-TG hydrolysis (1,3-TF-DG release), TLC fluorescence scan", "value": "2-acyl LPC competitively inhibited the release of fatty acyl chain at sn-2 of TG"}
    ]}
  ]
}
